Experimental data reported in ChEMBL document CHEMBL2434931, “Synthesis and antitumor activities of novel thiourea α-aminophosphonates from dehydroabietic acid” (Eur J Med Chem, 2013).

Columns and labels:
Format in all cases: functional, cell-based
HepG2 = experiment: Cytotoxicity against human HepG2 cells after 3 days by MTT assay; conditions: HepG2, 72 h
SK-OV-3 = experiment: Cytotoxicity against human SKOV3 cells after 3 days by MTT assay; conditions: SK-OV-3, 72 h
NCI-H460 = experiment: Cytotoxicity against human NCI-H460 cells after 3 days by MTT assay; conditions: NCI-H460, 72 h
A549 = experiment: Cytotoxicity against human A549 cells after 3 days by MTT assay; conditions: A549, 72 h

O=c1[nH]cc(F)c(=O)[nH]1 [FLUOROURACIL]
IC50 (HepG2): 30 µM
IC50 (SK-OV-3): 24.4 µM
IC50 (NCI-H460): 44 µM
IC50 (A549): 34.3 µM

CC(C)c1ccc2c(c1)CC[C@H]1[C@](C)(C(=O)O)CCC[C@]21C [DEHYDROABIETIC ACID]
IC50 (HepG2): 85 µM
IC50 (SK-OV-3): 84 µM
IC50 (NCI-H460): 84.5 µM
IC50 (A549): 79.5 µM

CCOP(=O)(OCC)C(NC(=S)NC(=O)[C@]1(C)CCC[C@]2(C)c3ccc(C(C)C)cc3C(=O)C[C@@H]12)c1ccccc1OC (stereo partly drawn)
IC50 (HepG2): > 50 µM
IC50 (SK-OV-3): 23.6 µM
IC50 (NCI-H460): 29.5 µM
IC50 (A549): 19.9 µM

CCOP(=O)(OCC)C(NC(=S)NC(=O)[C@]1(C)CCC[C@]2(C)c3ccc(C(C)C)cc3C(=O)C[C@@H]12)c1cccc(F)c1 (stereo partly drawn)
IC50 (HepG2): 37.1 µM
IC50 (SK-OV-3): > 50 µM
IC50 (NCI-H460): 39.8 µM
IC50 (A549): 33 µM

CCOP(=O)(OCC)C(NC(=S)NC(=O)[C@]1(C)CCC[C@]2(C)c3ccc(C(C)C)cc3/C(=N\O)C[C@@H]12)c1ccccc1OC (stereo partly drawn)
IC50 (HepG2): 8.62 µM
IC50 (SK-OV-3): 17.9 µM
IC50 (NCI-H460): 18.6 µM
IC50 (A549): 27.1 µM

CCOP(=O)(OCC)C(NC(=S)NC(=O)[C@]1(C)CCC[C@]2(C)c3ccc(C(C)C)cc3/C(=N\O)C[C@@H]12)c1ccccc1Cl (stereo partly drawn)
IC50 (HepG2): > 50 µM
IC50 (SK-OV-3): 40.2 µM
IC50 (NCI-H460): 29.1 µM
IC50 (A549): 32.8 µM

CCOP(=O)(OCC)C(NC(=S)NC(=O)[C@]1(C)CCC[C@]2(C)c3ccc(C(C)C)cc3C(=O)C[C@@H]12)c1cccc(Br)c1 (stereo partly drawn)
IC50 (HepG2): > 50 µM
IC50 (SK-OV-3): 49.1 µM
IC50 (NCI-H460): 41.5 µM
IC50 (A549): 42.5 µM

CCOP(=O)(OCC)C(NC(=S)NC(=O)[C@]1(C)CCC[C@]2(C)c3ccc(C(C)C)cc3C(=O)C[C@@H]12)c1ccc2ccccc2c1 (stereo partly drawn)
IC50 (HepG2): 25.2 µM
IC50 (SK-OV-3): 24.6 µM
IC50 (NCI-H460): 19.8 µM
IC50 (A549): 23.2 µM

CCOP(=O)(OCC)C(NC(=S)NC(=O)[C@]1(C)CCC[C@]2(C)c3ccc(C(C)C)cc3/C(=N\O)C[C@@H]12)c1ccccc1 (stereo partly drawn)
IC50 (HepG2): 27.2 µM
IC50 (SK-OV-3): 22.1 µM
IC50 (NCI-H460): 36.7 µM
IC50 (A549): 27 µM

CCOP(=O)(OCC)C(NC(=S)NC(=O)[C@]1(C)CCC[C@]2(C)c3ccc(C(C)C)cc3C(=O)C[C@@H]12)c1ccccc1 (stereo partly drawn)
IC50 (HepG2): 46.8 µM
IC50 (SK-OV-3): 42.5 µM
IC50 (NCI-H460): 21.1 µM
IC50 (A549): 21.6 µM

CCOP(=O)(OCC)C(NC(=S)NC(=O)[C@]1(C)CCC[C@]2(C)c3ccc(C(C)C)cc3C(=O)C[C@@H]12)c1ccc(Br)cc1 (stereo partly drawn)
IC50 (HepG2): > 50 µM
IC50 (SK-OV-3): 36.9 µM
IC50 (NCI-H460): 27.9 µM
IC50 (A549): 49.6 µM

CCOP(=O)(OCC)C(NC(=S)NC(=O)[C@]1(C)CCC[C@]2(C)c3ccc(C(C)C)cc3/C(=N\O)C[C@@H]12)c1ccc(OC)cc1 (stereo partly drawn)
IC50 (HepG2): 17 µM
IC50 (SK-OV-3): 30.8 µM
IC50 (NCI-H460): 38.5 µM
IC50 (A549): 23.6 µM

CCOP(=O)(OCC)C(NC(=S)NC(=O)[C@]1(C)CCC[C@]2(C)c3ccc(C(C)C)cc3/C(=N\O)C[C@@H]12)c1ccc(Br)cc1 (stereo partly drawn)
IC50 (HepG2): 26.9 µM
IC50 (SK-OV-3): 12.7 µM
IC50 (NCI-H460): 22.6 µM
IC50 (A549): 19 µM

CCOP(=O)(OCC)C(NC(=S)NC(=O)[C@]1(C)CCC[C@]2(C)c3ccc(C(C)C)cc3/C(=N\O)C[C@@H]12)c1ccccc1F (stereo partly drawn)
IC50 (HepG2): 9.73 µM
IC50 (SK-OV-3): 19.9 µM
IC50 (NCI-H460): 19.3 µM
IC50 (A549): 9.16 µM

CCOP(=O)(OCC)C(NC(=S)NC(=O)[C@]1(C)CCC[C@]2(C)c3ccc(C(C)C)cc3C(=O)C[C@@H]12)c1cccc2ccccc12 (stereo partly drawn)
IC50 (HepG2): > 50 µM
IC50 (SK-OV-3): 27.3 µM
IC50 (NCI-H460): > 50 µM
IC50 (A549): 32.6 µM

CCOP(=O)(OCC)C(NC(=S)NC(=O)[C@]1(C)CCC[C@]2(C)c3ccc(C(C)C)cc3C(=O)C[C@@H]12)c1ccc(C)cc1 (stereo partly drawn)
IC50 (HepG2): 15.2 µM
IC50 (SK-OV-3): 11.8 µM
IC50 (NCI-H460): 24.8 µM
IC50 (A549): 22.2 µM

CCOP(=O)(OCC)C(NC(=S)NC(=O)[C@]1(C)CCC[C@]2(C)c3ccc(C(C)C)cc3/C(=N\O)C[C@@H]12)c1cccc(Br)c1 (stereo partly drawn)
IC50 (HepG2): 42.8 µM
IC50 (SK-OV-3): 37.7 µM
IC50 (NCI-H460): 30.2 µM
IC50 (A549): 34.7 µM
